The values that follow come from US12662473B2, “Inhibitors for programmed cell necrosis and preparation method therefor and use thereof” (SHANGHAI INSTITUTE OF ORGANIC CHEMISTRY, CHINESE ACADEMY OF …, priority 2019, dated 2026).

Test [1] has as its system L929 cells. Nature of the test: TNF-induced programmed cell necrosis inhibition, Cell Titer-Glo viability. Format: cell-based, mouse. The note with it: Mus musculus, read-out: EC50 inhibitory activity on programmed cell necrosis. The method, boiled down:
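L929 mouse fibroblasts were pretreated 1 h at 37 °C with compound plus Smac (500 nM solution added), then stimulated with TNFα (500 ng/mL solution added) for 14 h. Viability was read as ATP by CellTiter-Glo luminescence, with unstimulated DMSO wells set to 100%, and EC50 values were calculated.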

Test [2] deals with FADD−/− Jurkat cells. The description is as above. Format: cell-based. The note with it: Homo sapiens, Jurkat. Put shortly: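 FADD-deficient Jurkat cells (2.5×10^5/mL) were pretreated 1 h at 37 °C with compound plus Smac (50 nM as added), then stimulated with TNFα (50 ng/mL as added) for 14 h at 37 °C, 5% CO2. Viability was measured as ATP by CellTiter-Glo luminescence, with unstimulated DMSO wells as 100%. EC50 values were derived.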

Where [3] appears, read: 14 h, TNFa + SM164, read-out: EC50 inhibitory activity on programmed cell necrosis.
Where [4] appears, read: TNFa, read-out: EC50 inhibitory activity on programmed cell necrosis.
Where [5] appears, read: L929, 14 h, L929 cells (mouse), TNFa + SM164.

Where two headings read alike, the source gives them in different places.

As a reminder, the EC50 is the concentration that produces a half-maximal response. For the compound `COc1cc(Cl)ccc1OC(C)(C)C(=O)N1CCCC1c1ccc(Cl)cc1` (stereo not shown) [QY-9-43], the EC50 in test [1] (L929, L929 cells (mouse), TNFa) was found to be 21 nM; in test [2] (setting [3]) it was 1150 nM; in test [2] (setting [4]), 0.16 nM.
On to `COc1cc(Cl)ccc1OC(C)(C)C(=O)N1CCC[C@H]1c1ccc(Cl)cc1` [QY-10-1], for which the EC50 in test [1] (setting [5]) was 3.6 nM; in test [1] (L929, L929 cells (mouse), TNFa), 0.79 nM; in test [2] (setting [3]) it was over 10000 nM; in test [2] (setting [4]), over 10000 nM.
Regarding `CC(=O)Nc1cc(Cl)ccc1OC(C)(C)C(=O)N1CCCC1c1ccc(Cl)cc1` (stereo not shown) [QY-10-92], the EC50 in test [1] (setting [5]) is over 10000 nM; in test [1] (L929, L929 cells (mouse), TNFa) it was over 10000 nM; in test [2] (setting [3]), over 10000 nM; in test [2] (setting [4]), over 10000 nM.
As to `COc1cc(Cl)ccc1OC(C)(C)C(=O)N1N=CCC1c1ccc(C)cc1` (stereo not shown) [QY-10-96], the EC50 in test [1] (setting [5]) turned out to be 6.31 nM; in test [1] (L929, L929 cells (mouse), TNFa), 0.151 nM; in test [2] (setting [3]) it was 633 nM; in test [2] (setting [4]), 13.4 nM.
For `COc1cc(Cl)ccc1NC(C)(C)C(=O)N1CCCC1c1ccc(Cl)cc1` (stereo not shown) [QY-10-104] the same measures were 66.2 nM, 13.6 nM, 794 nM and 106 nM.
`[2H]c1c([2H])c([C@]2([2H])CCCN2C(=O)C(C)(C)Oc2ccc(Cl)cc2OC)c([2H])c([2H])c1C([2H])([2H])[2H]` [QY-11-1]: the EC50 in test [1] (setting [5]) stood at 2.66 nM; in test [1] (L929, L929 cells (mouse), TNFa), 0.0803 nM; in test [2] (setting [4]), 4.05 nM.
In the case of `CC(C)(C(=O)N1CCCC1c1ccc(Cl)cc1)C1N=Nc2ccc(Cl)cc21` (stereo not shown) [QY-11-9A], the EC50 in test [1] (setting [5]) is over 10000 nM; in test [1] (L929, L929 cells (mouse), TNFa) it was 2530 nM; in test [2] (setting [3]), over 10000 nM; in test [2] (setting [4]), over 10000 nM.
Consider `CC(C)(C(=O)N1CCCC1c1ccc(Cl)cc1)n1ncc2cc(Cl)ccc21` (stereo not shown) [QY-11-9B], for which the EC50 in test [1] (setting [5]) was 3440 nM; in test [1] (L929, L929 cells (mouse), TNFa), 0.00171 nM; in test [2] (setting [3]), 3340 nM; in test [2] (setting [4]), 2830 nM.
For the compound `CC(C)(C(=O)N1CCCC1c1ccc(Cl)cc1)n1nnc2ccc(Cl)cc21` (stereo not shown) [QY-11-11A], the EC50 was 0.0772 nM in test [1] (setting [5]); 0.0188 nM in test [1] (L929, L929 cells (mouse), TNFa); over 10000 nM in test [2] (setting [3]); over 10000 nM in test [2] (setting [4]).
Regarding `CC(C)(C(=O)N1CCCC1c1ccc(Cl)cc1)n1nnc2cc(Cl)ccc21` (stereo not shown) [QY-11-11B], the EC50 was 0.12 nM in test [1] (setting [5]); 0.0192 nM in test [1] (L929, L929 cells (mouse), TNFa); over 10000 nM in test [2] (setting [3]); over 10000 nM in test [2] (setting [4]).
On to `CC(C)(C(=O)N1CCCC1c1ccc(Cl)cc1)n1ccc2cc(Cl)ccc21` (stereo not shown) [QY-11-15B], for which the EC50 is over 10000 nM in test [1] (setting [5]); over 10000 nM in test [1] (L929, L929 cells (mouse), TNFa); over 10000 nM in test [2] (setting [3]); over 10000 nM in test [2] (setting [4]).
`CC(C)(C(=O)N1CCCC1c1ccc(Cl)cc1)n1cnc2ccc(Cl)cc21` (stereo not shown) [QY-11-16A]: the EC50 is over 10000 nM in test [1] (setting [5]); over 10000 nM in test [1] (L929, L929 cells (mouse), TNFa); over 10000 nM in test [2] (setting [3]); over 10000 nM in test [2] (setting [4]).
In the case of `CC(C)(C(=O)N1CCCC1c1ccc(Cl)cc1)n1cnc2cc(Cl)ccc21` (stereo not shown) [QY-11-16B], the EC50 was over 10000 nM in test [1] (setting [5]); over 10000 nM in test [1] (L929, L929 cells (mouse), TNFa); over 10000 nM in test [2] (setting [3]); over 10000 nM in test [2] (setting [4]).
For the compound `CC(C)(Oc1ccc(C#N)cc1)C(=O)N1CCCC1c1ccc(Cl)cc1` (stereo not shown) [QY-11-36], the results for the EC50 in test [1] (setting [5]), in test [2] (setting [3]) and in test [2] (setting [4]) were 99.5 nM, 885 nM and 137 nM, respectively.
On to `CC(C)(Oc1ccc2ncsc2c1)C(=O)N1CCCC1c1ccc(Cl)cc1` (stereo not shown) [QY-11-44], for which the EC50 stood at 677 nM in test [1] (setting [5]); 0.0105 nM in test [1] (L929, L929 cells (mouse), TNFa); 1320 nM in test [2] (setting [3]); 212 nM in test [2] (setting [4]).
For `CC(C)(Oc1ccc(C#N)cc1F)C(=O)N1CCCC1c1ccc(Cl)cc1` (stereo not shown) [QY-11-45] the same measures were 108 nM, 0.7 nM, 915 nM and 139 nM.
As to `COc1cc(C#N)ccc1OC(C)(C)C(=O)N1CCCC1c1ccc(Cl)cc1` (stereo not shown) [QY-12-11], the EC50 in test [1] (setting [5]) amounted to 16.6 nM; in test [1] (L929, L929 cells (mouse), TNFa), 6.06 nM; in test [2] (setting [3]), 178 nM; in test [2] (setting [4]), 6.72 nM.
For the compound `[2H]c1c([2H])c([C@]2([2H])CCCN2C(=O)C(C)(C)Oc2ccc(C#N)cc2OC)c([2H])c([2H])c1C([2H])([2H])[2H]` [QY-12-14], the EC50 came out at 7.63 nM in test [1] (setting [5]); 3.16 nM in test [1] (L929, L929 cells (mouse), TNFa); 45.3 nM in test [2] (setting [3]); 3.65 nM in test [2] (setting [4]).
Turning to `Cn1cnc2ccc(OC(C)(C)C(=O)N3CCCC3c3ccc(Cl)cc3)cc21` (stereo not shown) [QY-12-32], the EC50 is 1160 nM in test [1] (setting [5]); 243 nM in test [1] (L929, L929 cells (mouse), TNFa); 2420 nM in test [2] (setting [3]); 535 nM in test [2] (setting [4]).
